Measurements from patent US20130274233A1, “MODULATORS OF HEDGEHOG SIGNALING PATHWAY” (priority 2012, published 2013).
Several values for one entry are separate records, joined by “and”; a condition that tells them apart may be missing. Identical values can stand only once.

Legend:
Type in all cases: cell-based
primary cilium (PC) = assay: Primary cilium markers in the high content assay (Ivs::tagRFPT, Arl13b, acetylated tubulin); settings: Ivs::tagRFPT and other PC markers
Text: (§1) Acapella 2.0 software (Evotec Technologies/PerkinElmer) was used to perform multi-parametric high content image quantification. Our image analysis script used Ivs::tagREPT to first determine the location of the PC and then Smo::EGFP to quantify the level of Smo present in the cilium.
The inventors used the spot-finding algorithm in the RFP channel to find Ivs-rich spots. Each non-overlapping spot was based on a maximum 8 pixel-radius (when using a 40× objective) around a central intensity peak of 5 pixels. A distance of at least 10 pixels was required between adjacent spot centers. Spot peaks had to exceed thresholds of relative intensity compared to the remaining body of the spot as well as to the entire image. The average, maximum and total RFP intensity of each spot were measured. The spots with sufficiently high absolute maxima to pass the selected threshold were classified as positive spots. To form candidate cilia, the inventors selected the brightest 15% of the pixels in each positive spot and merged those pixels into objects so that the brightest parts of adjacent spots could form single, larger cilia-shaped objects. To qualify the candidate cilia as true Ivs-positive cilia, the width of the objects created from merging the brightest pixels in each spot had to be at least 2 pixels and the length to half-width ratio had to exceed 3. (i.e. a 3-pixel long by 2-pixel wide cilium was the minimum accepted cilium size and the length had to be at least 1.5 fold of the width). The mean GFP intensity within these Ivs-positive cilia was used to estimate the ciliary level of Smo protein. The inventors subtracted the background of the mean GFP intensity in the 3-pixel wide area around each candidate cilium to avoid some false positives. Those Ivs-positive cilia that exceed the final mean GFP intensity threshold set for each experiment were deemed Smo-positive cilia. […]
Cells were cultured and treated in 384-well imaging plate precoated with poly-D-Lysine (Greiner Bio-one), fixed with 4% paraformaldehyde (Electron Microscopy Sciences), and stained with Hoechst (Invitrogen). […] Acapella 2.0 software (Evotec Technologies/PerkinElmer) was used to perform multi-parametric image quantification. All the comparative images were scanned with identical microscopic setting and analyzed with the same input parameters.

Smo::EGFP [1] = molecular target: T1, Smo::EGFP (Homo sapiens, UniProt Q99835); assay: SAG-induced Smo::GFP ciliary accumulation (3T3/Smo::GFP/Ivs::tagRFPT); settings: 3T3/Smo::GFP/Ivs::tagRFPT cells; 100 nM SAG; read-out: IC50, inhibition of SAG-induced Smo::GFP ciliary accumulation
T1 construct: expressed in transfected cells
T1 sequence (Q99835 28-787): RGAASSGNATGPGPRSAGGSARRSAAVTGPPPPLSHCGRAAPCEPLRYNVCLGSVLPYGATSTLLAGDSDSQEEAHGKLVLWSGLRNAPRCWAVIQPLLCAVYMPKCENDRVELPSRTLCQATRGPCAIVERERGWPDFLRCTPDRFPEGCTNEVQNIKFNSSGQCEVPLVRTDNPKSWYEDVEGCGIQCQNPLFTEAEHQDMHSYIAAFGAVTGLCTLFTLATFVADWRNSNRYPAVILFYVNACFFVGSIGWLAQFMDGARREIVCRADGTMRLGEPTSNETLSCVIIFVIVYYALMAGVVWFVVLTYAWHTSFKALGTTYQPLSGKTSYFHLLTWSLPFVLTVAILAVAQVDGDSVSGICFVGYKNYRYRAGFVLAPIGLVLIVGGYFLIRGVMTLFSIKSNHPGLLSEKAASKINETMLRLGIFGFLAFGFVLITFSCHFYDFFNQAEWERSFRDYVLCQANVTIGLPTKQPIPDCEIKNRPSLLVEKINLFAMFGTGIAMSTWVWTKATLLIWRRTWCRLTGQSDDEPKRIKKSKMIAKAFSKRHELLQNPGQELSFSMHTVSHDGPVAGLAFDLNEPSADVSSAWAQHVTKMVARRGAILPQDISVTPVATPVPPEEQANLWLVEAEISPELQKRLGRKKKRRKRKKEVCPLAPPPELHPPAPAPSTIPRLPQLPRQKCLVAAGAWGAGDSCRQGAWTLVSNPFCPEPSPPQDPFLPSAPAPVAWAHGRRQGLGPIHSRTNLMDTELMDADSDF
Procedure: (§2) Cells were cultured and treated in 384-well imaging plate precoated with poly-D-Lysine (Greiner Bio-one), fixed with 4% paraformaldehyde (Electron Microscopy Sciences), and stained with Hoechst (Invitrogen). Images were collected using Opera High Content Screening System (Perkin Elmer). Activityl)ase (IDBS Inc, Emeryvill, Calif.) and Pipeline Pilot (Accelrys, Inc. San Diego, Calif.) were used for high content screening data management and analysis. Acapella 2.0 software (Evotec Technologies/PerkinElmer) was used to perform multi-parametrical high content image quantification. All the images for comparison were scanned with identical microscopic settings and analyzed with the same input parameters.
as §1
The inventors used the spot-finding algorithm in the RFP channel to find Ivs-rich spots. Each non-overlapping spot was based on a maximum 8 pixel-radius (when using a 40× objective) around a central intensity peak of 5 pixels. A distance of at least 10 pixels was required between adjacent spot centers. […] The average, maximum and total RFP intensity of each spot were measured. […]

Smo::EGFP [2] = molecular target: T1, Smo::EGFP; assay: High content assay of Shh-induced Smo::EGFP accumulation in the primary cilium (Smo::EGFP/Ivs::tagRFPT NIH/3T3 cells); settings: 3T3/Smo::GFP/Ivs::tagRFPT cells; stimulus Shh; read-out: IC50, inhibition of Shh-induced Smo::GFP ciliary accumulaton
Text: NIH/3T3 cells were maintained in DMEM containing 10% (v/v) calf serum, penicillin, streptomycin, and L-glutamine. HEK293, L, cos 7, and suFU−/− mouse embryonic fibroblast cells were maintained in DMEM containing 10% (v/v) fetal bovine serum, penicillin, streptomycin, and L-glutamine. Smo::EGFP, SmoM2::GFP, and Ivs::tagRFPT were cloned into pBabe to generate retroviral particles for infection. Smo::EGFP/Ivs::tagRFPT and SmoM2::GFP/Ivs::tagRFPT stable cell lines were generated through viral infection of NIH/3T3^12. A ShhLightII Gli reporter cell line was obtained from the American Type Culture Collection (ATCC) and used in luciferase reporter assays to measure Hh pathway activity. The cell line contains a stably integrated Gli-responsive Firefly luciferase reporter and a constitutive Renilla luciferase expression construct^33. Subclones expressing Smo or SmoM2 in ShhLightII cells were used for chemical epistasis analyses.
as §2, §1
The inventors used the spot-finding algorithm in the RFP channel to find Ivs-rich spots. Each non-overlapping spot was based on a maximum 8 pixel-radius (when using a 40× objective) around a central intensity peak of 5 pixels. A distance of at least 10 pixels was required between adjacent spot centers. Spot peaks had to exceed thresholds of relative intensity compared to the remaining body of the spot as well as to the entire image. The average, maximum and total RFP intensity of each spot were measured. The spots with sufficiently high absolute maxima to pass the selected threshold were classified as positive spots. To form candidate cilia, the inventors selected the brightest 15% of the pixels in each positive spot and merged those pixels into objects so that the brightest parts of adjacent spots could form single, larger cilia-shaped objects. To qualify the candidate cilia as true Ivs-positive cilia, the width of the objects created from merging the brightest pixels in each spot had to be at least 2 pixels and the length to half-width ratio had to exceed 3. (i.e. a 3-pixel long by 2-pixel wide cilium was the minimum accepted cilium size and the length had to be at least 1.5 fold of the width). The mean GFP intensity within these Ivs-positive cilia was used to estimate the ciliary level of Smo protein. The inventors subtracted the background of the mean GFP intensity in the 3-pixel wide area around each candidate cilium to avoid some false positives. Those Ivs-positive cilia that exceed the final mean GFP intensity threshold set for each experiment were deemed Smo-positive cilia.
Hoechst staining was used to determine the total number of nuclei per well.
Measurements of the geometry of the cilia as well as the total fluorescent intensities of each cilium in the Smo- and Ivs-channels were used to determine if any of the compounds were having unusual effects on cilia size, intensity or frequency of observation or combinations of all three characteristics.

Smo::GFP = Smo::GFP (Homo sapiens, UniProt Q99835); assay: Ciliary accumulation of Smo::GFP upon overexpression (3T3/Smo::GFP Overexpression/Ivs::tagRFPT); settings: stimulus none, read-out: IC50, inhibiton of ciliary accumulation of Smo::GFP upon overexpression
Chain of Smo::GFP (Q99835 28-787): as above

SMILES | effect on primary cilium markers / ciliary structure (primary cilium (PC)) | IC50 (Smo::EGFP [1]) | IC50 (Smo::EGFP [2]) [nM] | IC50 (Smo::GFP) [nM]
CC1(C)O[C@@H]2C[C@H]3[C@@H]4C[C@H](F)C5=CC(=O)C=C[C@]5(C)[C@@]4(F)[C@@H](O)C[C@]3(C)[C@]2(C(=O)CO)O1 [FA, fluocinolone acetonide] | unaltered |  |  | 
CCN(CC)c1ccc(/C=N/NC(=O)c2ccc(O)cc2)cc1 [DY131] |  | ~2000 nM and 2000 nM | 800 | 80
